Assay results: article PMC3729039 (Molecular cancer therapeutics, 2013)

Experiments:
LNCaP95 cells = test: LNCaP95 cell growth/viability
LNCaP cells = test: Viability assay, LNCaP; assay type: cell-based, human; settings: treated for 4 days
[1] = molecular target: T1, full-length human glucocorticoid receptor (GR) (Homo sapiens, UniProt P04150); test: GR transcriptional activity, GRE reporter in LNCaP cells; settings: 10 µM, 10 nM dexamethasone, 48 hours
T1 sequence (P04150 1-777): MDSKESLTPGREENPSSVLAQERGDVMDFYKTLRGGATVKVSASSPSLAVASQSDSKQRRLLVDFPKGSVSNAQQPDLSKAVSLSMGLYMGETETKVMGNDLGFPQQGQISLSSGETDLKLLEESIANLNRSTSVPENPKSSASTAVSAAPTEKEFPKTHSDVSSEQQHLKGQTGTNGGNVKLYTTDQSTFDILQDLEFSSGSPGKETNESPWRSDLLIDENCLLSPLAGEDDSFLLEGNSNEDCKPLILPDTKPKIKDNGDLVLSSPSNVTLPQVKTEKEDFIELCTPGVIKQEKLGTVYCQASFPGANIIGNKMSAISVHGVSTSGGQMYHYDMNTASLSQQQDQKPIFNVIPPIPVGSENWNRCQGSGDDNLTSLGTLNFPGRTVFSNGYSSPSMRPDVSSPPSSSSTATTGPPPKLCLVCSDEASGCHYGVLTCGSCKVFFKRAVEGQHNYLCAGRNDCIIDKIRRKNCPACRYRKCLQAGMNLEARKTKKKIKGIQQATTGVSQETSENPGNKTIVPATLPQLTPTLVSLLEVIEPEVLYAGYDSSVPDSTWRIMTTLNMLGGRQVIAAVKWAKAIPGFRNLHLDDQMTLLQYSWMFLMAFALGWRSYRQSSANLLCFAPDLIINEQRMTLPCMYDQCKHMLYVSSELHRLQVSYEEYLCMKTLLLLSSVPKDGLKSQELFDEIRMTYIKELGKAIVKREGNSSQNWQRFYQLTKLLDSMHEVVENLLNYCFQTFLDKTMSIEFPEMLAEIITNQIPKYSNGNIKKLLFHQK

[2] = system: PSA, FKBP5 and TMPRSS2 transcripts; test: qRT-PCR of androgen-regulated genes in VCaP cells; assay type: cell-based; settings: 10 µM, 1 nM R1881, 16 hours
[3] = molecular target: T2, full-length human progesterone receptor-beta (PRβ) (Homo sapiens, UniProt P06401); test: PR transcriptional activity, PRE luciferase reporter in LNCaP cells; assay type: cell-based; settings: 10 µM, 10 nM 4-pregnene-3,20 dione, 48 hours
T2 sequence (P06401 1-933): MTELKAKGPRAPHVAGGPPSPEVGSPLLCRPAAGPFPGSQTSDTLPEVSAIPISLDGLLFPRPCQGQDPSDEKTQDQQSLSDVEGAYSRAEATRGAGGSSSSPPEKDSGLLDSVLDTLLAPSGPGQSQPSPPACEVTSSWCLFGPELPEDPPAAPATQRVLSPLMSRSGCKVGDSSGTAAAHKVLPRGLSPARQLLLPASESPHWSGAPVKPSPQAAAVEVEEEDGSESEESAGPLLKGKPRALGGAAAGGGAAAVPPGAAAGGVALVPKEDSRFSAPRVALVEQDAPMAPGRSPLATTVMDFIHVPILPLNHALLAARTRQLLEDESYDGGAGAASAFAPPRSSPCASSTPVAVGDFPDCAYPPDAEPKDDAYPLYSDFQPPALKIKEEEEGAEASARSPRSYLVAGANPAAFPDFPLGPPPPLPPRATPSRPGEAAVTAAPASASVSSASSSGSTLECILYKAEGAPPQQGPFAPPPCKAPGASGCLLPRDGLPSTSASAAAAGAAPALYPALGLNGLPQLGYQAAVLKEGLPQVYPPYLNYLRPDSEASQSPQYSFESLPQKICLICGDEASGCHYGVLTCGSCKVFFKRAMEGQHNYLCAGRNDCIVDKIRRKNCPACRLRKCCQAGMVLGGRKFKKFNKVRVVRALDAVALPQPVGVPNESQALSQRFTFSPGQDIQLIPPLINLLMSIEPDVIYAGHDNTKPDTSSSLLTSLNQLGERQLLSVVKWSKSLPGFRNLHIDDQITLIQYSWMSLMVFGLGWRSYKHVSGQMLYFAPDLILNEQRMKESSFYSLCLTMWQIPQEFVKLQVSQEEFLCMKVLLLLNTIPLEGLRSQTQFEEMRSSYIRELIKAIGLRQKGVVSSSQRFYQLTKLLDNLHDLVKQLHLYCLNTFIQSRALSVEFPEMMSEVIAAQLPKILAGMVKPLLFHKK

PC3 cells = test: Viability assay, PC3; assay type: cell-based, human; settings: PC3, treated for 3 days
VCaP cells = test: Viability assay, VCaP; assay type: cell-based; settings: VCaP (wild-type AR), treated for 5 days
[4] = system: seminal vesicles (androgen-dependent tissue); test: In vivo effects on androgen-dependent tissue in intact male mice; parameters: species or system NOD-SCID mice; settings: mature male mice, 10 mg/kg oral gavage, 13 daily doses
recombinant human PR LBD = molecular target: T3, recombinant human PR LBD (Homo sapiens, UniProt P06401); test: In vitro ligand competitor assay; assay type: binding
T3 sequence (P06401 679-913 limits assumed): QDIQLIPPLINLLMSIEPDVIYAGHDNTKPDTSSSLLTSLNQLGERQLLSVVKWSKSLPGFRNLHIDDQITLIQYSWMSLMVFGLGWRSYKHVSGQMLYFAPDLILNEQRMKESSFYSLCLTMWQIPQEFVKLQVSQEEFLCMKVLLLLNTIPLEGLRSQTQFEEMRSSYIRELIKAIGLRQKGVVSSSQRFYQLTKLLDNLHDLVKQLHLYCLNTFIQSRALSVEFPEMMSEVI

[5] = system: PC3 human prostate cancer cells; test: Proliferation of PC3 cells; assay type: cell-based; settings: PC3, 0.1 nM R1881
[6] = molecular target: recombinant human full-length ERα (Homo sapiens, UniProt P03372); test: In vitro ligand competitor assay; assay type: binding; settings: fluorescence polarization competitor assay
[7] = system: LNCaP human prostate cancer cells; test: Androgen-dependent proliferation of LNCaP cells; assay type: cell-based; settings: 0.1 nM R1881

Chain of recombinant human full-length ERα (P03372 whole entry): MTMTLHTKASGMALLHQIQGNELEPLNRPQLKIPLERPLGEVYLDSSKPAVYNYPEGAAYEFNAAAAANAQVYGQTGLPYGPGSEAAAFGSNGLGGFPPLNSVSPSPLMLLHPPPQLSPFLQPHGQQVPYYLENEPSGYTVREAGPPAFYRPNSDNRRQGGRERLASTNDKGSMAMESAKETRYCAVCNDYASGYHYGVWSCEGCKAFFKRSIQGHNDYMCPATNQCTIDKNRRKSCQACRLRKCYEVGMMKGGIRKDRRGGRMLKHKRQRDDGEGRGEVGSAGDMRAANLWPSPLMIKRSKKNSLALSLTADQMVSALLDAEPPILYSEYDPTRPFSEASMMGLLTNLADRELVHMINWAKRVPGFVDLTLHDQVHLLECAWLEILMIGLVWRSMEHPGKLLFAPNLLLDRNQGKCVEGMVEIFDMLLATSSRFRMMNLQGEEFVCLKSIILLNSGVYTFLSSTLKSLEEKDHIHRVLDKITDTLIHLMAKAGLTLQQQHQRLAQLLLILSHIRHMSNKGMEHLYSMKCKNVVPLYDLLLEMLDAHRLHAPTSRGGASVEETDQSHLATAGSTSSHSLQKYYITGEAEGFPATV

Row | Compound | effect on cell growth/viability (LNCaP95 cells) | cytotoxicity (viability assay) (LNCaP cells) | effect on transcriptional activity of GR induced by dexamethasone [1] | effect on androgen-induced levels of PSA transcript [2] | effect on androgen-induced levels of transcript for FKBP5 and TMPRSS2 [2] | effect on PR transcriptional activity induced by Preg [3] | cytotoxicity (viability assay) (PC3 cells) | cytotoxicity (viability assay) (VCaP cells) | testes weight [4] | EC50 (recombinant human PR LBD) | effect of androgen on proliferation [5] | competition with fluoromone for ERα [6] | effect of androgen on proliferation [7]
1 | CC(O)(CS(=O)(=O)c1ccc(F)cc1)C(=O)Nc1ccc(C#N)c(C(F)(F)F)c1 (stereo not drawn) [BIC, bicalutamide] | not altered | no indication of cytotoxicity | had no effect | neither BIC or any of the diterpenoids significantly reduced these levels | significantly blocked | inhibited | no indication of cytotoxicity | no indication of cytotoxicity | no effect on the weight of testis | 5.1 µM |  |  | 
2 | C[C@]1(O)CC[C@H]2[C@@H]3CCC4=CC(=O)CCC4=C3C=C[C@@]21C [R1881] | not altered |  |  |  |  |  |  |  |  |  | did not alter their proliferation | none of the AR ligands (R1881, BIC and the diterpenoids) were efficient in competing | led to increased proliferation
3 | CC#C[C@]1(O)CC[C@H]2[C@@H]3CCC4=CC(=O)CCC4=C3[C@@H](c3ccc(N(C)C)cc3)C[C@@]21C [RU486] |  |  |  |  |  | inhibited |  |  |  |  |  |  | 
